Data: the CheMixHub viscosity set

Test: xn = mol fraction of the nth substance listed

CCCCCCCCO + CCC(C)=O
viscosity [mPa·s], 100 kPa
Conditions	x2 = 0.0822	x2 = 0.1611	x2 = 0.2403	x2 = 0.3498	x2 = 0.4409	x2 = 0.5588	x2 = 0.6462	x2 = 0.7398	x2 = 0.8503	x2 = 0.9398
293.15 K	7.1	5.43	4.3	3.18	2.46	1.7	1.26	0.96	0.68	0.49
303.15 K	4.93	3.97	3.09	2.32	1.7	1.03	0.75	0.62	0.49	0.42
313.15 K	3.59	2.87	2.28	1.69	1.32	0.98	0.78	0.62	0.49	0.39
323.15 K	2.74	2.22	1.82	1.38	1.1	0.83	0.67	0.54	0.43	0.35

CC12CC3CC(C1)CC(C)(C3)C2 + C1C[C@@H]2[C@H]3CC[C@H](C3)[C@@H]2C1
viscosity [mPa·s], 100 kPa
Conditions	x1 = 0.1021	x1 = 0.2015	x1 = 0.3018	x1 = 0.4005	x1 = 0.4981	x1 = 0.602	x1 = 0.6998	x1 = 0.8051	x1 = 0.8993
293.15 K	3.147	3.237	3.335	3.436	3.513	3.592	3.657	–	3.747
298.15 K	2.841	2.922	3.002	3.084	3.151	3.22	3.273	–	3.342
303.15 K	2.582	2.65	2.717	2.787	2.847	2.904	–	–	3.002
313.15 K	2.158	2.207	2.257	2.307	2.353	–	–	2.451	2.458
323.15 K	1.796	–	–	–	1.955	1.989	2.012	–	2.046

CCCCCCCl + C=C(C)C(=O)OC
303.15 K, 101 kPa
Conditions	viscosity [mPa·s]
x2 = 0.1343	0.6215
x2 = 0.1947	0.6053
x2 = 0.3625	0.5729
x2 = 0.4962	0.5511
x2 = 0.6029	0.5375
x2 = 0.8144	0.5199
x2 = 0.8988	0.5152

C=Cc1ccccc1 + C1COCCO1
viscosity [mPa·s], 101.33 kPa
Conditions	x1 = 0.1012	x1 = 0.2139	x1 = 0.2989	x1 = 0.3996	x1 = 0.5054	x1 = 0.6016	x1 = 0.7019	x1 = 0.805	x1 = 0.9021
298.15 K	1.119	1.069	1.043	1.005	0.966	0.929	0.891	0.853	0.819
303.15 K	1.034	0.987	0.959	0.929	0.893	0.873	0.829	0.795	0.766
308.15 K	0.957	0.915	0.889	0.862	0.83	0.802	0.774	0.744	0.716

C=Cc1ccccc1 + CCCCCCCCCCCC
viscosity [mPa·s], 101.33 kPa
Conditions	x1 = 0.0973	x1 = 0.2027	x1 = 0.2991	x1 = 0.4009	x1 = 0.5183	x1 = 0.5987	x1 = 0.699	x1 = 0.8005	x1 = 0.8996
298.15 K	1.243	1.143	1.062	0.99	0.909	0.866	0.822	0.774	0.739
303.15 K	1.151	1.051	0.985	0.92	0.847	0.81	0.769	0.722	0.688
308.15 K	1.059	0.98	0.915	0.854	0.791	0.76	0.724	0.691	0.656

C=Cc1ccccc1 + CCCCCCCCCC
viscosity [mPa·s], 101.33 kPa
Conditions	x1 = 0.1007	x1 = 0.2052	x1 = 0.2991	x1 = 0.4114	x1 = 0.4959	x1 = 0.6135	x1 = 0.6992	x1 = 0.8062	x1 = 0.8984
298.15 K	0.803	0.773	0.75	0.724	0.706	0.688	0.68	0.677	0.693
303.15 K	0.749	0.722	0.702	0.678	0.663	0.646	0.638	0.633	0.644
308.15 K	0.7	0.678	0.658	0.638	0.624	0.607	0.602	0.6	0.611

CCCCCCCCO + NCCO
viscosity [mPa·s], 101.3 kPa
Conditions	x2 = 0.1	x2 = 0.2	x2 = 0.3	x2 = 0.4	x2 = 0.5	x2 = 0.6	x2 = 0.7	x2 = 0.8	x2 = 0.9
303.15 K	6.48	6.8	7.36	8.14	9.01	9.97	11	12.1	13.4
313.15 K	4.68	4.93	5.28	5.77	6.27	6.83	7.48	8.16	8.98
323.15 K	3.49	3.68	3.92	4.23	4.55	4.9	5.34	5.79	6.29

BrC(Br)Br + CCCCCC
298.15 K, 101 kPa
Conditions	viscosity [mPa·s]
x1 = 0.1058	0.3543
x1 = 0.2044	0.402
x1 = 0.2976	0.4904
x1 = 0.3989	0.5721
x1 = 0.5	0.6698
x1 = 0.6001	0.8212
x1 = 0.6743	0.9353
x1 = 0.8	1.217
x1 = 0.8948	1.475

CCCCCCCCO + CCCCCCO
viscosity [mPa·s], 101.8 kPa
Conditions	x2 = 0.1207	x2 = 0.3506	x2 = 0.5615	x2 = 0.7463	x2 = 0.9227
298.15 K	7.227	6.442	5.793	5.234	4.736
308.15 K	5.209	4.695	4.259	3.879	3.53
318.15 K	3.833	3.481	3.18	2.914	2.671

O=c1oc2ccccc2c(O)c1C(c1ccccc1)c1c(O)c2ccccc2oc1=O + CS(C)=O
viscosity [mPa·s], 100 kPa
Conditions	x1 = 0.0007822	x1 = 0.001562	x1 = 0.002337	x1 = 0.003116	x1 = 0.003894	x1 = 0.004664
293.15 K	2.346	2.469	2.592	2.715	2.839	2.963
298.15 K	2.068	2.179	2.286	2.394	2.502	2.611
303.15 K	1.883	1.966	2.063	2.161	2.256	2.352
308.15 K	1.684	1.755	1.825	1.909	1.992	2.076
313.15 K	1.519	1.578	1.638	1.713	1.789	1.862
